Values quoted from earlier work, collected in patent US7850723B1, “Method and apparatus for patient temperature control employing titration of therapy using EEG signals” (Innercool Therapies, Inc., priority 2005, dated 2010).

Assays:
clots [1] = details: clots treated with plasminogen (2 mg) and SK (100 IU) in 15 ml PBS; clot temperature raised from 24° C. to 37° C.
[2] = in vivo
clots [3] = details: clots treated with UK at 4° C. and 28° C.; heating to 28° C.

Compound: streptokinase [SK]
- fibrinolytic activity (clots [1]): heating enhanced the fibrinolytic activity

Compound: CCOC(=O)C1(c2ccccc2)CCN(C)CC1 [Meperidine]
- decrease of shivering threshold relative to vasoconstriction threshold [2]: twice as much

Compound: urokinase [UK]
- fibrinolytic activity (conversion of plasminogen to plasmin) (clots [3]): complete conversion of all plasminogen to plasmin
